From patent publication US20130261178A1, “PHENOXYPROPANOL DERIVATIVES AND THEIR USE IN TREATING CARDIAC AND CARDIOVASCULAR DISEASES” (priority 2010, published 2013) come the findings set out here.

One data set addresses T1, human beta3-adrenoceptor (Homo sapiens, UniProt P13945).
T1 construct: expressed in transfected cells; host or cells: CHO cells
Nature of the data set: 3H-CGP12177 whole-cell binding, CHO cells expressing human beta3-adrenoceptor. The following applies: 3H-CGP 12177 whole cell binding, mean ± s.e.mean; for Kd: log KD, read-out: Beta 3 Log KD (converted).

The target in another data set is T2, human beta2-adrenoceptor (Homo sapiens, UniProt P07550).
T2 construct: expressed in transfected cells; host or cells: CHO cells
Nature of the data set: 3H-CGP12177 whole-cell binding, CHO cells expressing human beta2-adrenoceptor. The note with it: 3H-CGP 12177 whole cell binding, mean ± s.e.mean; for Kd: log KD, read-out: Beta 2 Log KD (converted). The text has this: (§1) The selectivity of a ligand is given by the ratio of beta-1 to beta-2 KD.

Another data set has as its target beta1-adrenoceptor (Homo sapiens, UniProt P08588). Nature of the data set: 3H-CGP12177 whole-cell binding, CHO cells expressing human beta1-adrenoceptor. On the set-up: expressed in transfected cells; host or cells: CHO cells. The note with it: 3H-CGP 12177 whole cell binding, mean ± s.e.mean; for Kd: log KD, read-out: Beta 1 Log KD (converted).
Description: as §1

Each structure is given as a SMILES string.

beta1-adrenoceptor, sequence (P08588 whole entry): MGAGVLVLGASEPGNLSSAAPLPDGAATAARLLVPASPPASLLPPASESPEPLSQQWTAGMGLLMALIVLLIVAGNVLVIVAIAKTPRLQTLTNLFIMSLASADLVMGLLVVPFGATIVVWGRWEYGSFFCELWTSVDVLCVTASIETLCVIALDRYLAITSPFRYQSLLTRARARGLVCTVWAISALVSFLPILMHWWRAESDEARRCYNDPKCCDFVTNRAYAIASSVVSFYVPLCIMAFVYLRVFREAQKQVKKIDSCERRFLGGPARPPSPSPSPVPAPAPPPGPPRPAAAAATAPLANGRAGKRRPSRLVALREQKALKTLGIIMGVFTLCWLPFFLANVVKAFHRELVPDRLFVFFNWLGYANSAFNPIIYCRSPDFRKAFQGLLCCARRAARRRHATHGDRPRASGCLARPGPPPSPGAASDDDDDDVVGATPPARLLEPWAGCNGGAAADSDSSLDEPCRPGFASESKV
T2 sequence (P07550 whole entry): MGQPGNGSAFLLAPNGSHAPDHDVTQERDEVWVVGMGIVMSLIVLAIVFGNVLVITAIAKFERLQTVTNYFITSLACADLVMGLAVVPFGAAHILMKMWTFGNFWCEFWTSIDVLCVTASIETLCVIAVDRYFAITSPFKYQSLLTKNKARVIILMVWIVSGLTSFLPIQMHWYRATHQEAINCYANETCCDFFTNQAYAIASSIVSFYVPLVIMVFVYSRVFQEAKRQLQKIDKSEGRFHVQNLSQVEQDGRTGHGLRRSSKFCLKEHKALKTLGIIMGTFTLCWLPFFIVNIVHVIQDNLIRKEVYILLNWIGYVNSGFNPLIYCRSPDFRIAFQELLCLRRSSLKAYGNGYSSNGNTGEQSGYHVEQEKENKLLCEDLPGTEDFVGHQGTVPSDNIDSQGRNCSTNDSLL
T1 sequence (P13945 whole entry): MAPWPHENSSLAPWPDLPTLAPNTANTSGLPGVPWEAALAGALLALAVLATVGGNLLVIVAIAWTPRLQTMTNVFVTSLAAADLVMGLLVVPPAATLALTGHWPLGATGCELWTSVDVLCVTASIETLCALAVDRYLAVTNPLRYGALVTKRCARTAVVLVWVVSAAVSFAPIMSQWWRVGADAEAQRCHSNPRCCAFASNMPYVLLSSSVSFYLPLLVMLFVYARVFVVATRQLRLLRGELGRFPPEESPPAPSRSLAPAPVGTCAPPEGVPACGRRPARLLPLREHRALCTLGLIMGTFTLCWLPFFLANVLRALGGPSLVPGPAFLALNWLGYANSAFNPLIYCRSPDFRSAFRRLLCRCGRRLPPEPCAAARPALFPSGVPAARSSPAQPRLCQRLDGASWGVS

One may read the Kd as the concentration at which binding is half-saturated. In the case of `OC(CNCCNC(=S)Nc1ccccc1)COc1ccc(OCCOC2CCCC2)cc1` (stereo not drawn) [compound 52, 1-(2-(3-(4-(2-(Cyclopentyloxy)ethoxy)phenoxy)-2-hydroxypropylamino)ethyl)-3-phenylthiourea], the dissociation constant (Kd) is 7080 nM on human beta3-adrenoceptor, 692 nM at human beta2-adrenoceptor and 81.3 nM on beta1-adrenoceptor.

Turning to `O=C(NCCNCC(O)COc1ccc(OCCOC2CCCC2)cc1)c1ccccc1O` (stereo not drawn) [54d], the Kd on human beta3-adrenoceptor was 4570 nM; at human beta2-adrenoceptor, 501 nM; on beta1-adrenoceptor, 32.4 nM.

`CCOCCOc1ccc(OCC(O)CNCCNC(=O)Cc2cccc(O)c2)cc1` (stereo not drawn) [46h, N-(2-(3-(4-(2-ethoxyethoxy)phenoxy)-2-hydroxypropylamino)ethyl)-2-(3-hydroxyphenyl)acetamide]: the Kd is 9330 nM at human beta3-adrenoceptor, 257 nM on human beta2-adrenoceptor and 44.7 nM on beta1-adrenoceptor.

Take `O=C(Nc1ccccc1)OCCNCC(O)COc1ccc(OCCOC2CCCC2)cc1` (stereo not drawn) [compound 51, 2-(3-(4-(2-(Cyclopentyloxy)ethoxy)phenoxy)-2-hydroxypropylamino)ethyl phenylcarbamate]: the dissociation constant (Kd) at human beta3-adrenoceptor is 1050 nM; at human beta2-adrenoceptor, 468 nM; on beta1-adrenoceptor, 29.5 nM.

For the molecule `O=C(NCCNCC(O)COc1ccc(OCCOC2CCCC2)cc1)Nc1ccccc1O` (stereo not drawn) [47t, 1-(2-(3-(4-(2-(Cyclopentyloxy)ethoxy)phenoxy)-2-hydroxypropylamino)ethyl)-3-(2-hydroxyphenyl)urea], at human beta3-adrenoceptor, the Kd was 3980 nM. Also, the “Beta 1 Log KD” value on beta1-adrenoceptor is reported as −6.99 ± 0.08.

As to `O=C(NCCNCC(O)COc1ccc(OCCOC2CCCC2)cc1)c1cccc(O)c1` (stereo not drawn) [54e], the Kd at human beta3-adrenoceptor is 1100 nM; on human beta2-adrenoceptor, 282 nM; on beta1-adrenoceptor, 30.9 nM.

As a reminder, the melting point is the temperature, or range, at which the solid turns liquid. Turning to `O=C(Cc1ccccc1C(F)(F)F)NCCNCC(O)COc1ccc(OCCOC2CCCC2)cc1` (stereo not drawn) [62m], the melting point was in the range of 120.5 to 121.5 °C. Moreover, the Kd on human beta2-adrenoceptor is 126 nM. Moreover, the equilibrium dissociation constant (Kd) at beta1-adrenoceptor is 9.55 nM.

`O=C(Cc1ccc(O)cc1)NCCNCC(O)COc1ccc(OCCOC2CCCC2)cc1` (stereo not drawn) [62v] returned a melting point of 127.5 to 130 °C. For the same molecule, the Kd at human beta2-adrenoceptor is 251 nM. Besides, on beta1-adrenoceptor, the Kd is 5.37 nM.

In the case of `O=C(Cc1ccc(F)cc1)NCCNCC(O)COc1ccc(OCCOC2CCCC2)cc1` (stereo not drawn) [62i], the melting point lay in the range of 114.5 to 115.5 °C. The Kd at human beta2-adrenoceptor is 178 nM. Besides, at beta1-adrenoceptor, the Kd is 7.76 nM.

Turning to `O=C(Cc1cccc(F)c1)NCCNCC(O)COc1ccc(OCCOC2CCCC2)cc1` (stereo not drawn) [62h], the melting point was 116.5 to 118 °C. The Kd on human beta2-adrenoceptor is 110 nM. For the same molecule, the Kd on beta1-adrenoceptor is 6.76 nM.

Turning to `CCOCCOc1ccc(OCC(O)CNCCNC(=O)Nc2cccc(Cl)c2)cc1` (stereo not drawn) [46f, 1-(2-(3-(4-(2-Ethoxyethoxy)phenoxy)-2-hydroxypropylamino)ethyl)-3-(3-chlorophenyl)urea hydroformate], the Kd at human beta3-adrenoceptor was 7240 nM; at human beta2-adrenoceptor, 6310 nM; at beta1-adrenoceptor, 31.6 nM.

The molecule `O=C(Cc1ccccc1Cl)NCCNCC(O)COc1ccc(OCCOC2CCCC2)cc1` (stereo not drawn) [62j] gave a melting point of 113.5 to 114.5 °C. The Kd at human beta2-adrenoceptor is 57.5 nM. Moreover, the Kd at beta1-adrenoceptor is 3.47 nM.

The molecule `O=C(Cc1cccc(Cl)c1)NCCNCC(O)COc1ccc(OCCOC2CCCC2)cc1` (stereo not drawn) [62k] gave a melting point of 117 to 118 °C. Moreover, at human beta2-adrenoceptor, the Kd is 135 nM. In addition, at beta1-adrenoceptor, the Kd was 6.92 nM.

Take `Cc1ccccc1CC(=O)NCCNCC(O)COc1ccc(OCCOC2CCCC2)cc1` (stereo not drawn) [62p]: the melting point is 119 to 120.5 °C. In addition, the dissociation constant (Kd) at human beta2-adrenoceptor is 72.4 nM. Moreover, the Kd at beta1-adrenoceptor is 9.55 nM.

For the molecule `Nc1ccccc1C(=O)NCCNCC(O)COc1ccc(OCCOC2CCCC2)cc1` (stereo not drawn) [62b], the melting point is 107 to 109 °C. For the same molecule, the dissociation constant (Kd) on human beta2-adrenoceptor is 309 nM. Further, the Kd on beta1-adrenoceptor was 17.8 nM.

In turn, `O=C(Cc1cccc(C(F)(F)F)c1)NCCNCC(O)COc1ccc(OCCOC2CCCC2)cc1` (stereo not drawn) [62n] returned a melting point of 111.5 to 112.5 °C. Moreover, the Kd at human beta2-adrenoceptor was 200 nM. The dissociation constant (Kd) on beta1-adrenoceptor is 13.2 nM.

For `COc1cccc(CC(=O)NCCNCC(O)COc2ccc(OCCOC3CCCC3)cc2)c1` (stereo not drawn) [62s], the melting point was 110 to 113 °C. Further, at human beta2-adrenoceptor, the Kd was 53.7 nM. At beta1-adrenoceptor, the Kd is 10.7 nM.

With `O=C(NCCNCC(O)COc1ccc(OCCOC2CCCC2)cc1)Nc1cccc(O)c1` (stereo not drawn) [47u, 1-(2-(3-(4-(2-(Cyclopentyloxy)ethoxy)phenoxy)-2-hydroxypropylamino)ethyl)-3-(3-hydroxyphenyl)urea], the Kd on human beta3-adrenoceptor was 6920 nM. Besides, the “Beta 2 Log KD” value on human beta2-adrenoceptor is reported as −5.85 ± 0.06. For the same molecule, the “Beta 1 Log KD” value at beta1-adrenoceptor is reported as −7.89 ± 0.06.

As for `O=C(NCCNCC(O)COc1ccc(OCCOC2CCCC2)cc1)Nc1ccc(O)c(F)c1` (stereo not drawn) [compound 54, 1-(2-(3-(4-(2-(Cyclopentyloxy)ethoxy)phenoxy)-2-hydroxypropylamino)ethyl)-3-(3-fluoro-4-hydroxyphenyl)urea Hydroformate], the Kd at human beta3-adrenoceptor was 10200 nM; on human beta2-adrenoceptor, 2570 nM; at beta1-adrenoceptor, 8.51 nM.

Molecule `O=C(Cc1ccc(Cl)cc1)NCCNCC(O)COc1ccc(OCCOC2CCCC2)cc1` (stereo not drawn) [62l] came in with a melting point of 107 to 109 °C. The Kd on human beta2-adrenoceptor was 162 nM. Also, the Kd on beta1-adrenoceptor was 7.59 nM.

Take `O=C(NCCNCC(O)COc1ccc(OCCOCC2CC2)cc1)Nc1cccc(Cl)c1` (stereo not drawn) [46e, 1-(2-(3-(4-(2-(Cyclopropylmethoxy)ethoxy)phenoxy)-2-hydroxypropylamino)ethyl)-3-(3-chlorophenyl)urea hydroformate]: the dissociation constant (Kd) is 8510 nM on human beta3-adrenoceptor, 5750 nM on human beta2-adrenoceptor and 29.5 nM at beta1-adrenoceptor.

As to `Nc1cccc(C(=O)NCCNCC(O)COc2ccc(OCCOC3CCCC3)cc2)c1` (stereo not drawn) [62c], the melting point was 105 to 107.5 °C. Besides, the Kd at human beta2-adrenoceptor is 4470 nM. Further, the Kd on beta1-adrenoceptor is 174 nM.

Consider `O=C(NCCNCC(O)COc1ccc(OCCOC2CCCC2)cc1)Nc1ccccc1Br` (stereo not drawn) [47n], for which, on human beta3-adrenoceptor, the Kd was 14800 nM. Moreover, on human beta2-adrenoceptor, the “Beta 2 Log KD” value was −6.10 ± 0.03. Moreover, at beta1-adrenoceptor, the “Beta 1 Log KD” value is reported as −7.11 ± 0.01.

In the case of `O=C(NCCNCC(O)COc1ccc(OCCOC2CCCC2)cc1)c1ccccc1` (stereo not drawn) [62a], the melting point is 149 to 152 °C. The equilibrium dissociation constant (Kd) on human beta2-adrenoceptor is 1150 nM. Also, at beta1-adrenoceptor, the Kd was 69.2 nM.

For the molecule `Cc1cccc(NC(=O)NCCNCC(O)COc2ccc(OCCOC3CCCC3)cc2)c1` (stereo not drawn) [47c], the Kd at human beta3-adrenoceptor was 17400 nM. Further, the “Beta 2 Log KD” value at human beta2-adrenoceptor is listed as −6.06 ± 0.03. Further, at beta1-adrenoceptor, the “Beta 1 Log KD” value is −8.04 ± 0.04.

The molecule `Nc1ccc(C(=O)NCCNCC(O)COc2ccc(OCCOC3CCCC3)cc2)cc1` (stereo not drawn) [62d] had a melting point of 67 to 69 °C. Further, the Kd on human beta2-adrenoceptor is 5500 nM. For the same molecule, the Kd at beta1-adrenoceptor is 13.8 nM.

In the case of `CCOCCOc1ccc(OCC(O)CNCCNC(=O)Nc2ccc(O)cc2)cc1` (stereo not drawn) [46d], the melting point was in the range of 96 to 98 °C. The Kd at human beta2-adrenoceptor is over 100000 nM. Further, the Kd on beta1-adrenoceptor is 83.2 nM.

As to `O=S(=O)(Cc1ccccc1)NCCNCC(O)COc1ccc(OCCOC2CCCC2)cc1` (stereo not drawn) [compound 53, N-(2-(3-(4-(2-(Cyclopentyloxy)ethoxy)phenoxy)-2-hydroxypropylamino)ethyl)-benzylsulfonamide], the Kd is 19100 nM on human beta3-adrenoceptor, 933 nM at human beta2-adrenoceptor and 25.7 nM at beta1-adrenoceptor.

Take `O=C(Cc1ccccc1)NCCNCC(O)COc1ccc(OCCOC2CCCC2)cc1` (stereo not drawn) [compound 49, N-(2-(3-(4-(2-(Cyclopentyloxy)ethoxy)phenoxy)-2-hydroxypropylamino)ethyl)-2-phenylacetamide Hydroformate]: the Kd is 4370 nM at human beta3-adrenoceptor, 53.7 nM on human beta2-adrenoceptor and 3.8 nM at beta1-adrenoceptor.

On to `O=C(Cc1ccc(C(F)(F)F)cc1)NCCNCC(O)COc1ccc(OCCOC2CCCC2)cc1` (stereo not drawn) [62o], for which the melting point lay in the range of 132 to 133 °C. In addition, on human beta2-adrenoceptor, the Kd is 214 nM. For the same molecule, on beta1-adrenoceptor, the Kd was 9.12 nM.

`O=C(Cc1ccccc1F)NCCNCC(O)COc1ccc(OCCOC2CCCC2)cc1` (stereo not drawn) [62g] yielded a melting point of 122 to 124 °C. At human beta2-adrenoceptor, the Kd is 97.7 nM. Further, on beta1-adrenoceptor, the Kd was 2.4 nM.

As for `N#Cc1cc(OCCOCC2CC2)ccc1OCC(O)CNCCNC(=O)Nc1ccc(O)cc1` (stereo not drawn) [LK204-545], the “Beta 3 Log KD” value on human beta3-adrenoceptor is listed as −4.62 ± 0.09. The “Beta 2 Log KD” value at human beta2-adrenoceptor was −5.20 ± 0.03.

As for `O=C(Cc1cccc(O)c1)NCCNCC(O)COc1ccc(OCCOC2CCCC2)cc1` (stereo not drawn) [54j, N-(2-(3-(4-(2-(cyclopentyloxy)ethoxy)phenoxy)-2-hydroxypropylamino)ethyl)-2-(3-hydroxyphenyl)acetamide], the dissociation constant Kd on human beta3-adrenoceptor was 2510 nM; at human beta2-adrenoceptor it was 15.5 nM; on beta1-adrenoceptor, 3.72 nM.

`O=C(NCCNCC(O)COc1ccc(OCCOC2CCCC2)cc1)c1ccc(O)cc1` (stereo not drawn) [54f]: the Kd was 513 nM on human beta3-adrenoceptor, 162 nM on human beta2-adrenoceptor and 1.74 nM on beta1-adrenoceptor.

With `CCOCCOc1ccc(OCC(O)CNCCNC(=O)Cc2ccccc2O)cc1` (stereo not drawn) [46g, N-(2-(3-(4-(2-ethoxyethoxy)phenoxy)-2-hydroxypropylamino)ethyl)-2-(2-hydroxyphenyl)acetamide], the Kd at human beta3-adrenoceptor was 10000 nM; on human beta2-adrenoceptor, 537 nM; at beta1-adrenoceptor, 77.6 nM.

As to `O=C(Cc1ccc(O)cc1)NCCNCC(O)COc1ccc(OCCOCC2CC2)cc1` (stereo not drawn) [46i, N-(2-(3-(4-(2-(cyclopropylmethoxy)ethoxy)phenoxy)-2 hydroxypropylamino)ethyl)-2-(4-hydroxyphenyl)acetamide], the Kd on human beta3-adrenoceptor is 3890 nM; at human beta2-adrenoceptor, 933 nM; at beta1-adrenoceptor it was 17 nM.

As for `O=C(NCCNCC(O)COc1ccc(OCCOCC2CC2)cc1)Nc1ccc(OCc2ccccc2)cc1` (stereo not drawn) [45a], the Kd was 1780 nM at human beta3-adrenoceptor and 70.8 nM on beta1-adrenoceptor.
